Measurements taken from patent publication US9175305B2, “Mutant hydroxyphenylpyruvate dioxygenase polypeptides and methods of use” (Syngenta Participations AG, priority 2009, dated 2015).
“And” between values parts separate entries of the source, which are not always exact repeats. Equal values may be shown once. Read-outs that look alike come from different tables or passages of the source.

What was measured:
[1] = molecular target: HPPD SEQ ID NO:14 (Avena sativa, UniProt A0ACD5V6K6, DEL109-109); assay: biochemical; type: binding
Chain of HPPD SEQ ID NO:14 (A0ACD5V6K6 entry or part of it DEL109-109): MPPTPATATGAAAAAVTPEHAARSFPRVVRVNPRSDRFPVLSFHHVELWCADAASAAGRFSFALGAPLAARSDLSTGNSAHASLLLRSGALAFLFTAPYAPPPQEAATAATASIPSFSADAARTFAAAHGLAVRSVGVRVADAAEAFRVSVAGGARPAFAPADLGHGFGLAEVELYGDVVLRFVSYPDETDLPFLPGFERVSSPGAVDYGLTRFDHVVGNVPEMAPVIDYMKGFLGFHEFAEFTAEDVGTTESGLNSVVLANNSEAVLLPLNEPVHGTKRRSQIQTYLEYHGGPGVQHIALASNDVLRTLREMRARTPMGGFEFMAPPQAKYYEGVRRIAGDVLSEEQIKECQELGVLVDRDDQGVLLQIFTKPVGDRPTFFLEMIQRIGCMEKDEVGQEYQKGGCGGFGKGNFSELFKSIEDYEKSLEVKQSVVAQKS
Experimental: (§1) On rates (governed by an association rate constant, kon) for the formation of the enzyme: inhibitor complexes, EI and off rates (governed by a dissociation rate constant, koff) were determined by methods known in the art and essentially as described in Hawkes et al. (2001) Proc. Bright. Crop. Prot. Conf. Weeds, 2:563-568 and in PCT Patent App. Pub. No. WO 02/46387).
(§2) For example, on rates were measured by, at zero time, adding ˜60 pmoles HPPD to 50 mM BisTrisPropane buffer at pH7.0 and at 25° C. containing 25 mM Na ascorbate, 4 μg/ml bovine catalase (Sigma, St. Louis, Mo.) and an excess (˜300 pmoles) of ^14C inhibitor in a total assay volume of 425 μl and, at various time points (0-180 s), quenching the radiolabel binding reaction by addition and rapid mixing of 100 μl ‘cold’ 1 mM structure A. Protein samples quenched at different times were then exchanged into 50 mM BisTrisPropane buffer at pH 7.0 containing 0.1M KCl by rapid chromatography down a NAP5 G25 Sephadex column (GE Healthcare Ltd, Buckinghamshire UK) and the amount of ^14C bound to protein fractions quantified in Optiphase scintillant using a Tri-Carb 2900TR scintillation counter (Perkin Elmer, Wellesley, Mass.). The data were fit according to the scheme below in order to derive the value of the apparent second order rate constant, k2, governing the association rate of enzyme and radiolabelled inhibitor. A range of enzyme and inhibitor concentrations were used. […] Further example methods are described in PCT Patent App. Pub. No. WO 02/46387.
(§3) Off rates (k1 in the scheme below) were derived from exchange rate studies where either the test inhibitor, I, or its exchange partner, J were radiolabelled and the data fit according to the scheme below. As noted in Hawkes et al. (2001) Proc. Bright. Crop. Prot. Conf.
(§4) After 30 minutes the exchange reaction was initiated with addition of 100 μl 1 mM ‘cold’ structure A with thorough mixing, and, immediately, 150 μl were withdrawn and loaded onto a NAP5 column, the protein exchanged into 50 mM BisTrisPropane buffer at pH 7.0 containing 0.1M KCl by rapid (<2 min) chromatography down a NAP5 G25 Sephadex column (GE Healthcare Ltd, Buckinghamshire UK) and the amount of ^14C bound to protein measured by Optiphase scintillant using a Tri-Carb 2900TR scintillation counter (Perkin Elmer, Wellesley, Mass.). Further aliquots were removed and measured in the same way at various times over minutes or hours as required in order to determine the exchange kinetics.
(§5) After 30 minutes the reaction vessel was transferred to ice. After a further 10 minutes at ice temperature the exchange reaction was initiated by addition of 100 μl 1 mM Structure A, with thorough mixing, and 150 μl was withdrawn and loaded onto a NAP5 column in a cold room at ˜5-8° C. in order to quantify the amount of radiolabel remaining bound to the protein at various time from the start of exchange at ice temperature.
(§6) Off rates (k1) of HPPD inhibitors that are not available radiolabelled or that present other measurement problems (for example high levels of background non-specific protein-binding which can be measured as radiolabel binding that persists in the presence of high concentrations of ‘cold’ inhibitor) may be measured indirectly. […] Exemplary methods are also described in PCT Patent App. Pub. No. WO 02/46387.

[2] = molecular target: HPPD SEQ ID NO:15 (Avena sativa, UniProt A0ACD5V6K6, DEL109-109/Q298A); assay: biochemical; type: binding
Chain of HPPD SEQ ID NO:15 (A0ACD5V6K6 entry or part of it DEL109-109/Q298A): as the sequence (A0ACD5V6K6 entry or part of it DEL109-109) above, with Q297A counted along it
Experimental: as §1, §2, §3, §4, §5, §6

[3] = molecular target: HPPD SEQ ID NO:16 (Avena sativa, UniProt A0ACD5V6K6, DEL109-109/Q298G); assay: biochemical; type: binding
Chain of HPPD SEQ ID NO:16 (A0ACD5V6K6 entry or part of it DEL109-109/Q298G): as the sequence (A0ACD5V6K6 entry or part of it DEL109-109) above, with Q297G counted along it
Experimental: as §1, §2, §3, §4, §5, §6

[4] = molecular target: HPPD SEQ ID NO:17 (Avena sativa, UniProt A0ACD5V6K6, DEL109-109/Q298S); assay: biochemical; type: binding
Chain of HPPD SEQ ID NO:17 (A0ACD5V6K6 entry or part of it DEL109-109/Q298S): as the sequence (A0ACD5V6K6 entry or part of it DEL109-109) above, with Q297S counted along it
Experimental: as §1, §2, §3, §4, §5, §6

[5] = molecular target: HPPD SEQ ID NO:18 (Avena sativa, UniProt A0ACD5V6K6, DEL109-109/I285T); assay: biochemical; type: binding
Chain of HPPD SEQ ID NO:18 (A0ACD5V6K6 entry or part of it DEL109-109/I285T): as the sequence (A0ACD5V6K6 entry or part of it DEL109-109) above, with I284T counted along it
Experimental: as §1, §2, §3, §4, §5, §6

[6] = molecular target: HPPD SEQ ID NO:20 (Avena sativa, UniProt A0ACD5V6K6, DEL109-109/I285S); assay: biochemical; type: binding
Chain of HPPD SEQ ID NO:20 (A0ACD5V6K6 entry or part of it DEL109-109/I285S): as the sequence (A0ACD5V6K6 entry or part of it DEL109-109) above, with I284S counted along it
Experimental: as §1, §2, §3, §4, §5, §6

[7] = molecular target: HPPD SEQ ID NO:21 (Avena sativa, UniProt A0ACD5V6K6, DEL109-109/I285V); assay: biochemical; type: binding
Chain of HPPD SEQ ID NO:21 (A0ACD5V6K6 entry or part of it DEL109-109/I285V): as the sequence (A0ACD5V6K6 entry or part of it DEL109-109) above, with I284V counted along it
Experimental: as §1, §2, §3, §4, §5, §6

[8] = molecular target: HPPD SEQ ID NO:22 (Avena sativa, UniProt A0ACD5V6K6, DEL109-109/L256M); assay: biochemical; type: binding
Chain of HPPD SEQ ID NO:22 (A0ACD5V6K6 entry or part of it DEL109-109/L256M): as the sequence (A0ACD5V6K6 entry or part of it DEL109-109) above, with L255M counted along it
Experimental: as §1, §2, §3, §4, §5, §6

[9] = molecular target: HPPD SEQ ID NO:23 (Avena sativa, UniProt A0ACD5V6K6, A242W/DEL109-109); assay: biochemical; type: binding; conditions: read-out: kon (k2)
Chain of HPPD SEQ ID NO:23 (A0ACD5V6K6 entry or part of it DEL109-109/A242W): as the sequence (A0ACD5V6K6 entry or part of it DEL109-109) above, with A241W counted along it
Experimental: as §1, §2, §3, §4, §5, §6

[10] = molecular target: HPPD SEQ ID NO:25 (Avena sativa, UniProt A0ACD5V6K6, DEL109-109/L359A); assay: biochemical; type: binding
Chain of HPPD SEQ ID NO:25 (A0ACD5V6K6 entry or part of it DEL109-109/L359A): as the sequence (A0ACD5V6K6 entry or part of it DEL109-109) above, with L358A counted along it
Experimental: as §1, §2, §3, §4, §5, §6

[11] = system: G408A mutant of HPPD SEQ ID NO:14; assay: time course of inhibition of enzyme activity; type: biochemical, Avena sativa; conditions: inhibitor at 0.15 or 0.6 μM
[12] = system: Jack w/t; assay: herbicide spray test on soybean; type: in vivo; conditions: C 400 g/ha, V2 growth stage, 14 DAT, average of n=7
Experimental: Each data point represents the average damage score from n=7 replicates.
Plants were in 4×4×4 inch plastic pots and grown under a 15/9 hour light regime (daylight supplemented by artificial light in greenhouses) at a minimum night-time temperature of 18° C. and maximum daytime temperature of 27° C. Soil was regular VBRC mix (1:1 mixture of Vero field soil and Fafard Mix II) where Vero field soil is 98% sand and 2% clay. […] Spray volume was 150 L/ha and the damage scores reflect assessments at 14 DAT.

COCCOCc1nc(C(F)(F)F)ccc1C(=O)C1C(=O)C2CCC(C2)C1=O (stereo not drawn) [Structure C]
On rate, activity-based method ([1]; 25° C., enzyme activity-based method): 7800 M⁻¹ s⁻¹ and 7600 M⁻¹ s⁻¹ and 7200 M⁻¹ s⁻¹ and 10000 M⁻¹ s⁻¹
kon ([1]; 25° C., enzyme activity-based method, read-out: On rate, activity-based method): 7500 M⁻¹ s⁻¹
Kd/Km ratio ([1]; HPPD SEQ ID NO:14): 0.0017
Kd ([1]; Kd, estimated from on and off rates, 25° C.): 0.0094 µM
koff ([1]; read-out: koff (k1)): 7.04e-05 s⁻¹
kon ([1]; read-out: kon (k2)): 7500 M⁻¹ s⁻¹
Kd [2]: 0.0177 µM
koff ([2]; read-out: koff (k1)): 0.000113 s⁻¹
kon ([2]; read-out: kon (k2)): 7500 M⁻¹ s⁻¹
Kd [3]: 0.0267 µM
koff ([3]; read-out: koff (k1)): 0.00012 s⁻¹
kon ([3]; read-out: kon (k2)): 4500 M⁻¹ s⁻¹
Kd [4]: 0.0071 µM
koff ([4]; read-out: koff (k1)): 6.65e-05 s⁻¹
kon ([4]; read-out: kon (k2)): 9400 M⁻¹ s⁻¹
Kd [5]: 0.0119 µM
koff ([5]; read-out: koff (k1)): 9e-05 s⁻¹
kon ([5]; read-out: kon (k2)): 7500 M⁻¹ s⁻¹
Kd [6]: 0.0066 µM
koff ([6]; read-out: koff (k1)): 6.6e-05 s⁻¹
kon ([6]; read-out: kon (k2)): 10100 M⁻¹ s⁻¹
Kd [7]: 0.0119 µM
koff ([7]; read-out: koff (k1)): 9e-05 s⁻¹
kon ([7]; read-out: kon (k2)): 7500 M⁻¹ s⁻¹
Kd [8]: 0.0239 µM
koff ([8]; read-out: koff (k1)): 9e-05 s⁻¹
kon ([8]; read-out: kon (k2)): 4400 M⁻¹ s⁻¹
kon [9]: 7500 M⁻¹ s⁻¹
Kd [10]: 0.023 µM
koff ([10]; read-out: koff (k1)): 0.000113 s⁻¹
kon ([10]; read-out: kon (k2)): 4800 M⁻¹ s⁻¹
extent of inhibition compared with the control enzyme [11]: to a lesser extent
% dam. [12]: 82.1%
